The results in this text go back to patent publication US20090123940A1, “MOLECULES INVOLVED IN SYNAPTOGENESIS AND USES THEREFOR” (THE JOHNS HOPKINS UNIVERSITY, priority 2007, published 2009).

The test system of assay [1] is Narp association with AMPA receptor subunits. Put plainly: Co-immunoprecipitation of Narp with AMPA receptor subunits in HEK-293 cells. In kind it is cell-based. The settings on record: 1 mM tunicamycin. The text has this:
Co-immunoprecipitation experiments were used to examine whether Narp is physically associated with AMPA receptors in HEK-293 cells.

The subject of assay [2] is NPR cleavage at Site A (TACE). Put plainly: NPR cleavage assay in transfected HEK293T cells. In kind it is cell-based, rat. Particulars: PMA 150 nM, cells transfected with NPR. The protocol:
Cleavage Assay HEK293T cells were plated in OptiMEM (Invitrogen, Carlsbad, Calif.) containing 5% FBS onto 6-well dishes at a density of 4×10^5 cells/mL (2 mL/well) 1 day before transfection. Cells were transfected with NPR in pRK5 using LipofectAMINE 2000 (Invitrogen, Carlsbad Calif.). After 24 hr the medium was replaced with serum-free OptiMEM. […] Samples from each well were obtained at specific time points, immediately placed on ice, centrifuged at 15,000 g to remove cell debris, and then treated with 2% β-mercaptoethanol containing loading buffer. At the end of the time course, the cells were lysed with RIPA buffer, centrifuged to remove cell debris, and treated with 2% β-mercaptoethanol in loading buffer. Samples (20 μL of medium or lysate diluted to 1/5) were run on SDS-PAGE gels and analyzed by Western blotting.

In assay [3] the test system is NPR-myc and GluR2-HA in COS-7 cells. The assay can be described thus: Live staining of NPR clusters in transfected COS-7 cells after PMA. The assay is classed as cell-based. The protocol:
Immunocytochemical staining. Immunocytochemical staining of heterologous cells was performed as described (Xu et al., supra). For PMA-stimulation experiments, PMA (Sigma Cat #: P8139) at (150 nM) was added 90 minutes prior to live staining. Images were viewed and captured using Nikon E800 epifluorescence microscope fitted with a Princeton Instruments CCD camera. For live staining, neurons cultured on coverslips were incubated at 10° C. with the appropriate primary antibodies at the indicated dilutions in conditioned culture medium for 20 min. They were then washed with PBS and fixed with 4% paraformaldehyde/4% sucrose in PBS for 20 min at room temperature. Cells were permeablized with 0.2% Triton X-100 in PBS for 5 min and then blocked in 10% normal goat serum in PBS for 1 hr at room temperature. […] For quantification of the punctate structures (e.g. GluR1), images were thresholded by grey value to differentiate single puncta. Segments of dendrites were selected and number of puncta was calculated per […] of length dendrite. Figures show ratios of calculated mean densities (number of puncta per unit length) from treated/control. Error bars were calculated using SEM and Gaussian error propagation. n=number of measured dendrites. Significance was determined by paired Student's T-test. […]

Consider tunicamycin, for which the “association between Narp and AMPA receptor subunits” value in assay [1] was “no effect”.

As to `CCCCCCCCCCCCCC(=O)O[C@@H]1[C@@H](C)[C@@]2(O)[C@@H](C=C(CO)C[C@]3(O)C(=O)C(C)=C[C@@H]23)[C@@H]2C(C)(C)[C@]12OC(C)=O` [PMA, phorbol myristate acetate], the “accumulation of LFC-NPR in the medium” value in assay [2] was “increased the accumulation of LFC-NPR in the medium”. Besides, the “NPR distribution on COS-7 cells expressing NPR-myc” value in assay [3] (PMA 150 nM, 90 min) is “large clusters of NPR were detected”. Moreover, the “clustering of NPR and GluR2 in COS-7 cells co-transfected with NPR-myc and GluR2-HA” value in assay [3] (PMA treated) was “exhibited co-clusters of NPR and GluR2”.
